The nature of data set [1]: Influence on body weight of SD rat by repeated administration. It counts as in vivo. The conditions noted are these: for Relative body weight change ratio (%): 750 mg/kg orally once a day, two weeks. On the procedure:
The rats were grouped as follows, with four animals in each group, by a random classification method such that the average body weights of the respective groups would be almost uniform (Day 1).
The body weight change (BWC) was used as an index indicating the systemic toxicity caused by the compound administration. The BWC was calculated by the following formula. BWC (%)=([(Rat body weight on 14 days after the administration)−(Rat body weight at the time of grouping)]/(Rat body weight at the time of grouping))×100
The relative body weight change ratios in the each compound-administered groups were calculated by the following formula when the BWC in the vehicle-administered group was set as 1, and the results are indicated in Table 25. Relative body weight change ratio (%)=(BWC in the compound-administered group)/BWC in the vehicle-administered group)×100

Data set [2] deals with T1, phosphorylated BTK protein in Ramos cells (Homo sapiens, UniProt Q06187).
T1 construct: endogenous in cells; host or cells: Ramos cells
T1 sequence (Q06187 whole entry): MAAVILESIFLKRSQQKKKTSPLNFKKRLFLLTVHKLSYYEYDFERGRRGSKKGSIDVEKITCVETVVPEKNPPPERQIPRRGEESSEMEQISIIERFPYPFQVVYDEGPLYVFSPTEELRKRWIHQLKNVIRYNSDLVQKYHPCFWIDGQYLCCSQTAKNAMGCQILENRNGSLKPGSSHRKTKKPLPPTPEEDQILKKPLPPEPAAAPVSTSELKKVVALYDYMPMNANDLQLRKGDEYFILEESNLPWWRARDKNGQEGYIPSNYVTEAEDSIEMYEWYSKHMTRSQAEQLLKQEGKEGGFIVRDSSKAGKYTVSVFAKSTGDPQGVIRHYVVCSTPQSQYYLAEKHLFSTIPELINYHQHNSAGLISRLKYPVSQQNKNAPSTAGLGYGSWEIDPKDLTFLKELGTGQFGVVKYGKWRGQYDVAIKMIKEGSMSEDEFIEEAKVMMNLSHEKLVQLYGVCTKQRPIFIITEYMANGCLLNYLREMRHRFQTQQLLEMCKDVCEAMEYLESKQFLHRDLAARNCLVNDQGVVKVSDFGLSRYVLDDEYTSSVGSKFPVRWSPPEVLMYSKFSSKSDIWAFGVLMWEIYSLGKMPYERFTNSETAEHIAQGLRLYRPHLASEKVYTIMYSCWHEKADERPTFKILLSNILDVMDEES
As to the kind of experiment: Inhibitory activity against B-cell activation using Ramos cells (BTK phosphorylation). It counts as cell-based. The settings on record: anti-human IgM stimulation, pY223 Western blotting, read-out: Phosphorylated BTK inhibitory concentration (IC50, (nM)). On the procedure: The human B-cell lymphoma-derived cell line, Ramos cells were suspended in RPMI1640 medium, and then the cells were inoculated in a culture plate at a concentration of 2.0×10^6 (cells/well). The cells were cultured in a CO2 incubator (Sanyo Electric Biomedical Co., Ltd.) at 37° C. for 12 hours. […] Then, 10 minutes of stimulation was provided with Goat F(ab′)2 anti-human IgM antibody-UNLB (southern biotech Corp.). Thereafter, the cells were harvested, and 50 μL of (a cell extract (NP-40; Invitrogen, Inc.) containing 1×protease inhibitor (Hoffmann-La Roche AG) and 1×phosphatase cocktail inhibitor (Sigma-Aldrich Co.)) was added to the cell pellets. The cell pellets were left to stand for 10 minutes on ice. The amount of protein in the collected cell extract was quantitatively analyzed by a DC protein assay (Bio-Rad Laboratories, Inc.), and 20 μg of proteins per lane was applied to a Criterion TGX™ (Bio-Rad Laboratories, Inc.). After electrophoresis was performed, Western blotting was performed with Trans-Blot™ Turbo™ (Bio-Rad Laboratories, Inc.). Thereafter, phosphorylated BTK protein and BTK protein were detected with LAS4000 (GE Healthcare, Inc.) with a BTK phosphor (pY223) antibody (EPITOMICS Inc.) and a BTK antibody (Abcam, plc.).

Data set [3] deals with TNP-IgE mice. Description: Mouse antigen-induced dermatitis model. The conditions noted are these: for Ear swelling control ratio (%): 30 minutes before allergen, 2 hours after antigen. The data set is classed as in vivo. From the text:
Type I allergy models accompanied by a skin symptom (a dermatitis model) were produced, with TNP-IgE mice (CLEA Japan, Inc.). The mice are genetically modified BALB/c mice that constantly produce an IgE specific to hapten TNP (trinitrophenol) which is widely used as an allergen (antigen). It is possible to induce an allergic reaction in the mice, only by administering an allergen, without carrying out an immunization. […] An average value of thickening values of both ears was obtained as a value of an individual (provided that a previous value before the allergen application was 0 mm).
Ear swelling control ratio (%) was calculated by the following formula. Ear swelling control ratio (%)=(1−(Average value of ear thickening of compound administered group)/(Average value of ear thickening of vehicle administered group))×100

In data set [4] the test system is RBL-2H3 cells. As to the kind of experiment: Inhibitory activity against allergic reaction using RBL-2H3 cells (PGD2 production). The conditions noted are these: anti-DNP IgE / DNP-BSA, read-out: PGD2 production inhibitory concentration (IC50, (nM)). The data set is classed as cell-based, rat. Here is the method:
Rat basophilic leukemia cells, RBL-2H3, were suspended in MEM medium containing 10% FBS, and then the cells were inoculated in a culture plate, and cultured in a CO2 incubator (Sanyo Electric Biomedical Co., Ltd.) at 37° C. for 12 hours. After a culture supernatant was removed and the cells were washed, an anti-DNP-mouse IgE (Alpha Diagnostic Inc.) solution was added thereto, and the cells were cultured in the CO2 incubator for 1 hour. After a culture supernatant was removed and the cells were washed, an MEM medium was added thereto.
Further, a DNP-BSA (LSL, Inc.) solution was added thereto and the cells were cultured in the CO2 incubator for 15 minutes. A culture supernatant was collected and reacted, with PGD2-MOX EIA kit (Cayman Chemical Inc.) on the basis of the protocol attached thereto, and absorbance was measured by SUNRISE RAINBOW THERMO (TECAM Inc.).

Data set [5] deals with MRL/lpr mice. As to the kind of experiment: Mouse systemic lupus erythematosus model. It counts as in vivo. The conditions noted are these: at the doses used in the test. On the procedure: MRL/lpr mice (Japan SLC, Inc.) were used to evaluate drug efficacy in this test, since the mice are widely used as mice models in which symptoms of autoimmune diseases similar to human systemic lupus erythematosus spontaneously express. A grouping was carried out on the basis of swellings of lymph nodes in submaxilla and axilla at 14 weeks old, and once-daily oral administration was continued for 42 days from the day of grouping, with vehicle or Example Compound 13 suspension. Urea nitrogen concentration and anti-dsDNA antibody concentration in peripheral blood at the final administration day were measured.

Data set [6] concerns mouse collagen-induced arthritis model. Description: Mouse collagen-induced arthritis model (therapeutic effect), Test Example 8. The data set is classed as in vivo. The conditions noted are these: therapeutic administration, FIG. 3. Here is the method:
(§1) Seven-week-old male/DBA/1 mice (CHARLES RIVER LABORATORIES JAPAN, INC.) were intracutaneously injected in the dorsum with 100 μL/body of an equal amount-mixed solution (emulsion) of a 4 mg/mL bovine type 2 collagen solution (Collagen Research Center) and a complete freund's adjuvant (DIFCO Inc.) (Initial immunization). After 21 days therefrom, the mice were intracutaneously injected in the base of the tail with 100 μL/body of the equal amount-mixed solution (emulsion) of a 4 mg/mL of bovine type 2 collagen solution (Collagen Research Center) and a complete freund's adjuvant (DIFCO Inc.) to carry out an additional immunization. […] Symptoms of arthritis in day 0, day 4, day 7, day 11, and day 14 were scored with the naked eye (0: No change, 1: Swelling of a finger, 2: Swelling of two fingers or more, 3: Swelling of instep, 4: Swelling of all fingers besides swelling extending to wrist/ankle), and a total of four limbs was obtained as a point of an individual (maximum 16 points).

The test system is the same in data set [7]. As to the kind of experiment: Mouse collagen-induced arthritis model (therapeutic effect), Test Example 7. The data set is classed as in vivo. The conditions noted are these: once-a-day oral for 15 days from sixth day after additional immunization, FIG. 2. Here is the method: as §1
Where [8] appears, read: Rattus norvegicus, RBL-2H3, RBL-2H3 cells.
Setting [9] is: repeated administration for two weeks.

Where two headings read alike, the source gives them in different places.

For the molecule `C=CC(=O)N1CCC[C@@H](n2nc(C(=O)Nc3nc4cc(F)ccc4o3)c3c(N)ncnc32)C1` [Example 12, (R)-1-(1-acryloylpiperidin-3-yl)-4-amino-N-(5-fluorobenzo[d]oxazol-2-yl)-1H-pyrazolo[3,4-d]pyrimidine-3-carboxamide], the “Relative body weight change ratio (%)” value in data set [1] was determined as 91.2%. For the same molecule, the figures for the IC50 in data set [2] and in data set [4] (setting [8]) were 0.18 nM and 15 nM, respectively. For the same molecule, the “Ear swelling control ratio (%)” value turned out to be 64% in data set [3] (1 mg/kg oral) and 80% in data set [3] (3 mg/kg oral). Also, the “ear swellings induced by the allergen application” value in data set [3] (from low dose, compared with Reference compound 1) is listed as “suppressed equivalently or strongly ear swellings”.
For `C=CC(=O)N1CCC[C@@H](n2nc(C(=O)Nc3nc4ccccc4o3)c3c(N)ncnc32)C1` [Example 13, (R)-1-(1-acryloylpiperidin-3-yl)-4-amino-N-(benzo[d]oxazol-2-yl)-1H-pyrazolo[3,4-d]pyrimidine-3-carboxamide], the “remarkable decrease in body weight” value in data set [5] is on record as “not recognized”. The “Relative body weight change ratio (%)” value in data set [1] was 79.1%. Also, the IC50 in data set [2] was 0.25 nM; in data set [4] (setting [8]), 26 nM. Besides, the “Ear swelling control ratio (%)” value in data set [3] (1 mg/kg oral) was found to be 54%; in data set [3] (3 mg/kg oral), 79%.
As for `C=CC(=O)N1CCC[C@@H](n2nc(-c3ccc(Oc4ccccc4)cc3)c3c(N)ncnc32)C1` [Reference compound 1, (R)-1-(3-(4-amino-3-(4-phenoxyphenyl)-1H-pyrazolo[3,4-d]pyrimidin-1-yl)piperidin-1-yl)prop-2-en-1-one, reference compound], the arthritis score result in data set [6] and in data set [7] was “delayed the further increase of the increased arthritis score” throughout. Besides, the loose bowel entry in data set [1] (setting [9]) is “individuals suffering from loose bowel were recognized”. The “rat body weight increase compared with the vehicle-administered group” value in data set [1] (setting [9]) is “very small”. The results for the IC50 in data set [4] (RBL-2H3 cells) and in data set [4] (setting [8]) were 348 nM and roughly 350 nM, respectively.
